Like-named read-outs stand apart in the source and are kept apart here. Blank lines part the entries; values can stand above or below the compound they belong to.
How the values were obtained:
ALK = molecular target: T1, ALK (Homo sapiens, UniProt Q9UM73); assay: ALK Kinase Assay (ELISA/TRF, PLC-γ substrate); format: biochemical; conditions: read-out: ALK Potency
T1 construct: host or cells: baculovirus expression system
Summary of the method: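 Wells were coated with 10 μg/mL phospholipase C-γ substrate in TBS, and the reaction was started by adding 30 ng/ml ALK enzyme and run at 37° C for 15 minutes. Phosphorylated product was detected with Eu-N1-labeled PT66 antibody, and IC50 values came from sigmoidal variable-slope fits of percent inhibition against log concentration.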

JAK2 = molecular target: T2, JAK2 (Homo sapiens, UniProt O60674); assay: Recombinant Human JAK2 Kinase Assay (TRF); format: biochemical; conditions: read-out: JAK2 Potency
T2 construct: host or cells: baculovirus expression system
Summary of the method: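 Baculovirus-expressed JAK2 (15 ng/ml) phosphorylated a biotinylated 15-mer peptide captured on Neutravidin-coated plates, in 20 mM HEPES pH 7.2 with 0.2 μM ATP, 1 mM MnCl2, 0.1% BSA and 2.5% DMSO. Reaction ran 20 min at room temperature; phosphopeptide was detected by time-resolved fluorescence with Eu-N1-labelled PY100 antibody.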

[1] = ALK kinase inhibition, 1 μM ATP
[2] = JAK2 kinase inhibition, 0.2 μM ATP

T1 sequence (Q9UM73 19-1620): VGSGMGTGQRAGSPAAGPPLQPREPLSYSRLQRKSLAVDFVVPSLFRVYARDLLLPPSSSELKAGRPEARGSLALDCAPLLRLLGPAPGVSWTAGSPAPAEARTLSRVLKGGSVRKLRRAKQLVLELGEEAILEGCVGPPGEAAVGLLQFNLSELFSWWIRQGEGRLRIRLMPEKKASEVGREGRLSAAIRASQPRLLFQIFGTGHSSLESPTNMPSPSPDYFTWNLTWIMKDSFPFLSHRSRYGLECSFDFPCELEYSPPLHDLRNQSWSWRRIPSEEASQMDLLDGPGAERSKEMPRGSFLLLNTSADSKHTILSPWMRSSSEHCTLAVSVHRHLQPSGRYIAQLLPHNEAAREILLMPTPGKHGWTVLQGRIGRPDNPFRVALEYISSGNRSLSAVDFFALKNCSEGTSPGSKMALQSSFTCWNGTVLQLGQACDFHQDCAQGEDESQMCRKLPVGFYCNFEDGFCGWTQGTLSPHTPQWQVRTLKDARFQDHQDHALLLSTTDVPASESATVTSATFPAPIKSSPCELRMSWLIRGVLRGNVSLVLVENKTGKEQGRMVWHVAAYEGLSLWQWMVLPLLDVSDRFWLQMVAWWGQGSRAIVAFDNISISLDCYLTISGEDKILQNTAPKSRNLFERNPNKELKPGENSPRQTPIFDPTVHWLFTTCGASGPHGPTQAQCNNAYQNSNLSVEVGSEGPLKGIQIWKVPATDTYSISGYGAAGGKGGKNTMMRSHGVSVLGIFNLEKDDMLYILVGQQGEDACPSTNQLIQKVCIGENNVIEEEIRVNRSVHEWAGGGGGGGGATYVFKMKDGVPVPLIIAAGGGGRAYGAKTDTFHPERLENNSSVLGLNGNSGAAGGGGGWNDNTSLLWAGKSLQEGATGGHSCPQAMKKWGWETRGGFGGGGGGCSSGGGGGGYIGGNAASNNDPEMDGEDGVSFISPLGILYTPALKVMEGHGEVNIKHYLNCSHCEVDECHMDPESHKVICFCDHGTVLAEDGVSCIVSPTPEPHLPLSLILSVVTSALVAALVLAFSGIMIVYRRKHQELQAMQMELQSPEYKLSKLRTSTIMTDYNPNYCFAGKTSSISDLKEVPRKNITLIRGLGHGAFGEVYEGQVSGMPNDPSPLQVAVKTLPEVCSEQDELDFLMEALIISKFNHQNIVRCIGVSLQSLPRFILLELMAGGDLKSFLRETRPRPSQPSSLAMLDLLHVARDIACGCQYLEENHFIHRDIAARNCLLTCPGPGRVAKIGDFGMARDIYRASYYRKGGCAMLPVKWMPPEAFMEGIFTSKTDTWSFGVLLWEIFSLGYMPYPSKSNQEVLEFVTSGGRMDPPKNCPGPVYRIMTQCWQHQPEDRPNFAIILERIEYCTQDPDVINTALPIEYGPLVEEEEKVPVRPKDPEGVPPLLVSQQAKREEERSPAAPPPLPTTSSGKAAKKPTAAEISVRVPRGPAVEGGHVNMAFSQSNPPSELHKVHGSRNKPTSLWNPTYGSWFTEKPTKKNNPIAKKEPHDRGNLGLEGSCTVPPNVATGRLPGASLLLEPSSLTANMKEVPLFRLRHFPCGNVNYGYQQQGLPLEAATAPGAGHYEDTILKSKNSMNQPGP
T2 sequence (O60674 whole entry): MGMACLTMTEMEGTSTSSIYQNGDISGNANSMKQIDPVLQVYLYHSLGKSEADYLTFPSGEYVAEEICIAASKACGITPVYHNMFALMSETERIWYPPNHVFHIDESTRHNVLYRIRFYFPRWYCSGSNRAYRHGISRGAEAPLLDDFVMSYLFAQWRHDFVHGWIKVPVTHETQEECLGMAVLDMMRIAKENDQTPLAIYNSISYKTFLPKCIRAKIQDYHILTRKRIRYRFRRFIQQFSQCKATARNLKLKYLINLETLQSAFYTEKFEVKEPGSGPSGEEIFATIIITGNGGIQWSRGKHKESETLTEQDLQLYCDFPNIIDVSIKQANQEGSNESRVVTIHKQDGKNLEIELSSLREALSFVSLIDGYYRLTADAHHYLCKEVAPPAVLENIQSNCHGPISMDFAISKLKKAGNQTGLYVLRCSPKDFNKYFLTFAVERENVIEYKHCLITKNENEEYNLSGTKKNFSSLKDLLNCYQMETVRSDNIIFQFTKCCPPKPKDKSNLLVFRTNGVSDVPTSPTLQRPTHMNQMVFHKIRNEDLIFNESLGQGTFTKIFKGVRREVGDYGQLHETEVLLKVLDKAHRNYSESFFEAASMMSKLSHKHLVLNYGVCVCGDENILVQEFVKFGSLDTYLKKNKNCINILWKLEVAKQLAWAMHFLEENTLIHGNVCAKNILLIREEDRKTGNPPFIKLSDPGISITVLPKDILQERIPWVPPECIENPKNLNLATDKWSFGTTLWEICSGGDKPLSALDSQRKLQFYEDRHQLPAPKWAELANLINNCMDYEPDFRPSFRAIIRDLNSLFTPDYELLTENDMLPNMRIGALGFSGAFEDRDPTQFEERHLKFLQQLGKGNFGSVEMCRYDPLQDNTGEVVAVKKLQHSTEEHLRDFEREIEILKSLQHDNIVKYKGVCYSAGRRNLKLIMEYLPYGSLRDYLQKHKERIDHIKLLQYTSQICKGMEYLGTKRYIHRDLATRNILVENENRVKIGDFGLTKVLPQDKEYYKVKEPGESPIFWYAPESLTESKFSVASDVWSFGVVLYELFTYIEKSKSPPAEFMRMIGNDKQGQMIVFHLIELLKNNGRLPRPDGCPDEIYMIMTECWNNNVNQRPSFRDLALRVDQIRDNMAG

Compound: COc1ccccc1-c1ccc2cnc(Nc3ccc(N4CCN(CC(C)(C)O)CC4)cc3)nn12 [Example 221, 1-(4-{4-[7-(2-Methoxy-phenyl)-pyrrolo[2,1-f][1,2,4]triazin-2-ylamino]-phenyl}-piperazin-1-yl)-2-methyl-propan-2-ol]
IC50 (ALK; ALK Kinase Inhibition): < 100 nM
IC50 (JAK2; JAK2 Kinase Inhibition): < 100 nM

Compound: COc1ccccc1-c1c(C)c(C)c2cnc(Nc3ccc(N4CCOCC4)cc3)nn12 [Example 112, [7-(2-Methoxy-phenyl)-5,6-dimethyl-pyrrolo[2,1-f][1,2,4]triazin-2-yl]-(4-morpholin-4-yl-phenyl)-amine]
IC50 (ALK; ALK Kinase Inhibition): 100 to 1000 nM
IC50 (JAK2; JAK2 Kinase Inhibition): < 100 nM

Compound: COCCn1cc(-c2ccc3cnc(Nc4cccc(N5CCN(C)CC5)c4)nn23)cn1 [Example 972, {7-[1-(2-Methoxy-ethyl)-1H-pyrazol-4-yl]-pyrrolo[2,1-f][1,2,4]triazin-2-yl}-[3-(4-methyl-piperazin-1-yl)-phenyl]-amine]
IC50 (ALK; [1]): 1000 to 10000 nM
IC50 (JAK2; [2]): < 100 nM

Compound: COc1cc(N2CCC(N3CCOCC3)CC2)ccc1Nc1ncc2ccc(-c3ccccc3NC(C)=O)n2n1 [Example 453, N-(2-{2-[2-Methoxy-4-(4-morpholin-4-yl-piperidin-1-yl)-phenylamino]-pyrrolo[2,1-f][1,2,4]triazin-7-yl}-phenyl)-acetamide]
IC50 (ALK; ALK Kinase Inhibition): 100 to 1000 nM
IC50 (JAK2; JAK2 Kinase Inhibition): 1000 to 10000 nM

Compound: CC(C)(C)NS(=O)(=O)c1cccc(-c2ccc3cnc(Nc4ccc5c(c4)NC(=O)C5)nn23)c1 [Example 652, N-tert-Butyl-3-[2-(2-oxo-2,3-dihydro-1H-indol-6-ylamino)-pyrrolo[2,1-f][1,2,4]triazin-7-yl]-benzenesulfonamide]
IC50 (ALK; [1]): 1000 to 10000 nM
IC50 (JAK2; [2]): < 100 nM

Compound: COc1cc(Nc2ncc3ccc(-c4cccc(Cl)c4)n3n2)cc(OC)c1OC [Example 143, [7-(3-Chloro-phenyl)-pyrrolo[2,1-f][1,2,4]triazin-2-yl]-(3,4,5-trimethoxy-phenyl)-amine]
IC50 (ALK; ALK Kinase Inhibition): 100 to 1000 nM
IC50 (JAK2; JAK2 Kinase Inhibition): < 100 nM

Compound: COc1ccccc1-c1ccc2cnc(Nc3ccc(C(=O)N4CCN(C)CC4)cc3)nn12 [Example 318, {4-[7-(2-Methoxy-phenyl)-pyrrolo[2,1-f][1,2,4]triazin-2-ylamino]-phenyl}-(4-methyl-piperazin-1-yl)-methanone]
IC50 (ALK; ALK Kinase Inhibition): 100 to 1000 nM
IC50 (JAK2; JAK2 Kinase Inhibition): < 100 nM

Compound: CS(=O)(=O)c1ccc(-c2ccc3cnc(Nc4ccc(C5CCN(CCO)CC5)cc4)nn23)cc1 [Example 679, 2-(4-{4-[7-(4-Methanesulfonyl-phenyl)-pyrrolo[2,1-f][1,2,4]triazin-2-ylamino]-phenyl}-piperidin-1-yl)-ethanol]
IC50 (ALK; [1]): < 100 nM
IC50 (JAK2; [2]): < 100 nM

Compound: O=S(=O)(c1cccc(-c2ccc3cnc(Nc4ccc5nc(CO)[nH]c5c4)nn23)c1)N1CCCC1 [Example 1070, (6-{7-[3-(Pyrrolidine-1-sulfonyl)-phenyl]-pyrrolo[2,1-f][1,2,4]triazin-2-ylamino}-1H-benzoimidazol-2-yl)-methanol]
IC50 (ALK; [1]): 1000 to 10000 nM
IC50 (JAK2; [2]): < 100 nM

Compound: CC(C)(C)NS(=O)(=O)c1cccc(-c2ccc3cnc(Nc4cccc(N)c4)nn23)c1 [Example 896, 3-[2-(3-Amino-phenylamino)-pyrrolo[2,1-f][1,2,4]triazin-7-yl]-N-tert-butyl-benzenesulfonamide]
IC50 (ALK; [1]): 100 to 1000 nM
IC50 (JAK2; [2]): < 100 nM

Compound: COc1ccccc1-c1ccc2cnc(Nc3ccc(N4CCCC(C(=O)N5CCN(C)CC5)C4)cc3)nn12 (centres unmarked) [Example 443, (1-{4-[7-(2-Methoxy-phenyl)-pyrrolo[2,1-f][1,2,4]triazin-2-ylamino]-phenyl}-piperidin-3-yl)-(4-methyl-piperazin-1-yl)-methanone]
IC50 (ALK; ALK Kinase Inhibition): < 100 nM
IC50 (JAK2; JAK2 Kinase Inhibition): < 100 nM

Compound: CN(c1ccccc1-c1ccc2cnc(Nc3ccc(N4CCOCC4)cc3)nn12)S(C)(=O)=O [Example 626, N-Methyl-N-{2-[2-(4-morpholin-4-yl-phenylamino)pyrrolo[2,1-f][1,2,4]triazin-7-yl]phenyl}methanesulfonamide]
IC50 (ALK; [1]): 100 to 1000 nM
IC50 (JAK2; [2]): < 100 nM

Compound: [5-Bromo-7-(4-methanesulfonyl-phenyl)-pyrrolo[2,1-f][1,2,4]triazin-2-yl]-(4-morpholin-4-yl-phenyl)-amine [Example 99]
IC50 (ALK; ALK Kinase Inhibition): > 10000 nM
IC50 (JAK2; JAK2 Kinase Inhibition): < 100 nM

Compound: CN1CCC(c2ccc(Nc3ncc4ccc(-c5cccc(S(=O)(=O)N6CCCC6)c5)n4n3)cc2)CC1 [Example 903, [4-(1-Methyl-piperidin-4-yl)-phenyl]-{7-[3-(pyrrolidine-1-sulfonyl)-phenyl]-pyrrolo[2,1-f][1,2,4]triazin-2-yl}-amine]
IC50 (ALK; [1]): 100 to 1000 nM
IC50 (JAK2; [2]): < 100 nM

Compound: CS(=O)(=O)c1ccc(-c2ccc3cnc(Nc4ccc(N5CCC(CO)CC5)cc4)nn23)cc1 [Example 87, (1-{4-[7-(4-Methanesulfonyl-phenyl)-pyrrolo[2,1-f][1,2,4]triazin-2-ylamino]-phenyl}-piperidin-4-yl)-methanol]
IC50 (ALK; ALK Kinase Inhibition): 1000 to 10000 nM
IC50 (JAK2; JAK2 Kinase Inhibition): < 100 nM

Further lines, results first:

IC50 (ALK; ALK Kinase Inhibition): 1000 to 10000 nM
IC50 (JAK2; JAK2 Kinase Inhibition): < 100 nM
Compound: COc1ccc(-c2ccc3cnc(Nc4ccc5nc(CN6CCN(CCO)CC6)[nH]c5c4)nn23)cn1 [Example 1523, 2-(4-{6-[7-(6-Methoxy-pyridin-3-yl)-pyrrolo[2,1-f][1,2,4]triazin-2-ylamino]-1H-benzimidazol-2-ylmethyl}-piperazin-1-yl)-ethanol]

IC50 (ALK; ALK Kinase Inhibition): < 100 nM
IC50 (JAK2; JAK2 Kinase Inhibition): 100 to 1000 nM
Compound: COc1cc(N2CCN(C[C@H](C)O)CC2)c(F)cc1Nc1ncc2ccc(-c3ccccc3OC)n2n1 [Example 1480, (S)-1-(4-{2-Fluoro-5-methoxy-4-[7-(2-methoxy-phenyl)-pyrrolo[2,1-f][1,2,4]triazin-2-ylamino]-phenyl}-piperazin-1-yl)-propan-2-ol]

IC50 (ALK; [1]): 100 to 1000 nM
IC50 (JAK2; [2]): < 100 nM
Compound: CCN1CCOC(c2ccc(Nc3ncc4ccc(-c5cnn(C)c5)n4n3)cc2)C1 (centres unmarked) [Example 1189, [4-(4-Ethyl-morpholin-2-yl)-phenyl]-[7-(1-methyl-1H-pyrazol-4-yl)-pyrrolo[2,1-f][1,2,4]triazin-2-yl]-amine]

IC50 (ALK; [1]): 100 to 1000 nM
IC50 (JAK2; [2]): < 100 nM
Compound: COc1ccccc1-c1ccc2cnc(Nc3ccc(N4CCN(C)CC4)cn3)nn12 [Example 1177, [7-(2-Methoxy-phenyl)-pyrrolo[2,1-f][1,2,4]triazin-2-yl]-[5-(4-methyl-piperazin-1-yl)-pyridin-2-yl]-amine]

IC50 (ALK; [1]): 1000 to 10000 nM
IC50 (JAK2; [2]): 100 to 1000 nM
Compound: CN1CCN(c2ccc(Nc3ncc4cc(-c5ccccc5OCC#N)cn4n3)cc2)CC1 [Example 1155, (2-{2-[4-(4-Methyl-piperazin-1-yl)-phenylamino]-pyrrolo[2,1-f][1,2,4]triazin-6-yl}-phenoxy)-acetonitrile]

IC50 (ALK; [1]): < 100 nM
IC50 (JAK2; [2]): 1000 to 10000 nM
Compound: COc1cc(CN2CCN(C(=O)OC(C)(C)C)CC2)ccc1Nc1ncc2ccc(-c3ccccc3N(C)S(C)(=O)=O)n2n1 [Example 1222, 4-(4-{7-[2-(Methanesulfonyl-methyl-amino)-phenyl]-pyrrolo[2,1-f][1,2,4]triazin-2-ylamino}-3-methoxy-benzyl)-piperazine-1-carboxylic acid tert-butyl ester]

IC50 (ALK; ALK Kinase Inhibition): 1000 to 10000 nM
IC50 (JAK2; JAK2 Kinase Inhibition): < 100 nM
Compound: CN1CCN(Cc2nc3cc(Nc4ncc5ccc(-c6ccc(S(C)(=O)=O)cc6)n5n4)ccc3[nH]2)CC1 [Example 1542, [7-(4-Methanesulfonyl-phenyl)-pyrrolo[2,1-f][1,2,4]triazin-2-yl]-[2-(4-methyl-piperazin-1-ylmethyl)-1H-benzimidazol-5-yl]-amine]

From patent US8471005B2 (Cephalon, Inc., priority 2008, dated 2013)
